The values below come from patent US6673793B2, “Oxazinoquinolones useful for the treatment of viral infections” (Pharmacia & Upjohn Co., priority 2000, dated 2004).

Where “and” joins values, the source holds several entries; their conditions need not be identical. Identical values can stand only once.

The target of the first data set is T1, CMV polymerase (Human cytomegalovirus, UniProt P08546).
T1 construct: made in house; host or cells: recombinant baculovirus-infected SF-9 cells
T1 sequence (P08546 whole entry): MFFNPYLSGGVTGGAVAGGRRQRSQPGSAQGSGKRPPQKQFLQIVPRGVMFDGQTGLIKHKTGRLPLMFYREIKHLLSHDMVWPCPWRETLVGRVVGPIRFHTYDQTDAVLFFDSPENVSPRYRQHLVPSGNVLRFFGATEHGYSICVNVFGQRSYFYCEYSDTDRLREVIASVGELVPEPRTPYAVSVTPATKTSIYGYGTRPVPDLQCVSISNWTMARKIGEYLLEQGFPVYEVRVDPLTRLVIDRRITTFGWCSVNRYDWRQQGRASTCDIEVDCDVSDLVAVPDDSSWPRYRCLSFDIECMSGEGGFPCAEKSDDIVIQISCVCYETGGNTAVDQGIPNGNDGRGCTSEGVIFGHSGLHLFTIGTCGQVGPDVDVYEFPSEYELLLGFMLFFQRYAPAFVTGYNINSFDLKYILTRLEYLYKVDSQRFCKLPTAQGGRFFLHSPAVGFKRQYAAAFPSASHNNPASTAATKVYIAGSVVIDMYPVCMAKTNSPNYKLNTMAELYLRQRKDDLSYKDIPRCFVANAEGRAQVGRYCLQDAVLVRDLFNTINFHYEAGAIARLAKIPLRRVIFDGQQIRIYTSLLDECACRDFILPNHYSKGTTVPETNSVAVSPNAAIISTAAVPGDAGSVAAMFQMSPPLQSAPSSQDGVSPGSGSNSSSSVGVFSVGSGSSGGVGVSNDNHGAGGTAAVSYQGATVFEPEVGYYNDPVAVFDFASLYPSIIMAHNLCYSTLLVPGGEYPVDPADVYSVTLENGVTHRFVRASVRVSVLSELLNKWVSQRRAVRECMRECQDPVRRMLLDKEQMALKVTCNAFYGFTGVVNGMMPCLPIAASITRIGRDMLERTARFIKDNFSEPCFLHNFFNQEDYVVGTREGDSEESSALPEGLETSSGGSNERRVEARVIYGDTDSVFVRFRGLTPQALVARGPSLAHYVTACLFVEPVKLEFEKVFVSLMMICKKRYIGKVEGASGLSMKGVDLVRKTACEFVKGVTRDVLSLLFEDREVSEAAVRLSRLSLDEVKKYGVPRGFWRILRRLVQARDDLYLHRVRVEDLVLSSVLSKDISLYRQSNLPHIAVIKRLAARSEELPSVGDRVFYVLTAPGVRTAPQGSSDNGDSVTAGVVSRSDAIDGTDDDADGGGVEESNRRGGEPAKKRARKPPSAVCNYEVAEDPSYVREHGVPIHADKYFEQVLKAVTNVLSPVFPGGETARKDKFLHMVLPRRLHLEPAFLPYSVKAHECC
The data set can be described thus: HCMV polymerase assay, scintillation proximity assay (SPA), modified version. It is filed as biochemical. The note with it: CMV polymerase IC50 (μM), modified HCMV polymerase SPA assay: compounds diluted in 100% DMSO, 4.5 mM DTT in polymerase buffer, different lot of CMV polymerase. On the procedure:
The HCMV polymerase assay is performed using a scintillation proximity assay (SPA) as described in several references, such as N. D. Cook, et al., Pharmaceutical Manufacturing International, pages 49-53 (1992); K. Takeuchi, Laboratory Practice, September issue (1992); U.S. Pat. No. 4,568,649 (1986); which are incorporated by reference herein. Reactions are performed in 96-well plates. The assay is conducted in 100 μl volume with 5.4 mM HEPES (pH 7.5), 11.7 mM KCl, 4.5 mM MgCl2, 0.36 mg/ml BSA, and 90 nM ^3H-dTTP. Assays are run with and without CHAPS, (3-[(3-Cholamidopropyl)-dimethylammonio]-1-propane-sulfonate) at a final concentration of 2 mM. HCMV polymerase is diluted in enzyme dilution buffer containing 50% glycerol, 250 mM NaCl, 10 mM HEPES (pH 7.5), 100 μg/ml BSA, and 0.01% sodium azide. The HCMV polymerase, which is expressed in recombinant baculovirus-infected SF-9 cells and purified according to literature procedures, is added at 10% (or 10 μl) of the final reaction volume, i.e., 100 μl. Compounds are diluted in 50% DMSO and 10 μl are added to each well. Control wells contain an equivalent concentration of DMSO. Unless noted otherwise, reactions are initiated via the addition of 6 nM biotinylated poly(dA)-oligo(dT) template/primer to reaction mixtures containing the enzyme, substrate, and compounds of interest. Plates are incubated in a 25 C. or 37 C. H2O bath and terminated via the addition of 40 μl/reaction of 0.5 M EDTA (pH 8) per well. Reactions are terminated within the time-frame during which substrate incorporation is linear and varied depending upon the enzyme and conditions used, i.e., 30 min. for HCMV polymerase. Ten μl of streptavidin-SPA beads (20 mg/ml in PBS/10% glycerol) are added following termination of the reaction. Plates are incubated 10 min. at 37 C., then equilibrated to room temperature, and counted on a Packard Topcount. Linear regressions are performed and IC50's are calculated using computer software.
A modified version of the above HCMV polymerase assay is performed as described above, but with the following changes: Compounds are diluted in 100% DMSO until final dilution into assay buffer. In the previous assay, compounds are diluted in 50% DMSO. 4.5 mM dithiotherotol (DTT) is added to the polymerase buffer.
For orientation: SPA uses beads or plates that emit light when radiolabelled molecules are held near them.
The compound `COP(=O)(OC)OCC1Cn2cc(C(=O)NCc3ccc(Cl)cc3)c(=O)c3cc(CN4CCOCC4)cc(c32)O1` (stereo not shown) [Example 26, [6-{[(4-Chlorobenzyl)amino]carbonyl}-9-(4-morpholinylmethyl)-7-oxo-2,3-dihydro-7H-[1,4]oxazino[2,3,4-ij]quinolin-2-yl]methyl dimethyl phosphate] registered an IC50 of 0.53 µM.

Still in this data set, the particulars now being: modified HCMV polymerase SPA assay: compounds diluted in 100% DMSO, 4.5 mM DTT in polymerase buffer, different lot of CMV polymerase; read-out: CMV polymerase IC50.
Consider `O=C(NCc1ccc(Cl)cc1)c1cn2c3c(cc(CN4CCOCC4)cc3c1=O)OC(CN1CCCC1)C2` (stereo not shown) [Example 5, N-(4-Chlorobenzyl)-9-(4-morpholinylmethyl)-7-oxo-2-(1-pyrrolidinylmethyl)-2,3-dihydro-7H-[1,4]oxazino[2,3,4-ij]quinoline-6-carboxamide], for which the IC50 was 1.1 µM.
Still for that read-out and setting: as for `CN1CCN(CC2Cn3cc(C(=O)NCc4ccc(Cl)cc4)c(=O)c4cc(CN5CCOCC5)cc(c43)O2)CC1` (stereo not shown) [Example 4, N-(4-Chlorobenzyl)-2-[(4-methyl-1-piperazinyl)methyl]-9-(4-morpholinylmethyl)-7-oxo-2,3-dihydro-7H-[1,4]oxazino[2,3,4-ij]quinoline-6-carboxamide], the figure is 1.3 µM.
For `COCOc1cccc(C2Cn3cc(C(=O)NCc4ccc(Cl)cc4)c(=O)c4cc(CN5CCOCC5)cc(c43)O2)c1OCOC` (stereo not shown) [Example 44, 2-[2,3-bis(Methoxymethoxy)phenyl]-N-(4-chlorobenzyl)-9-(morpholin-4-ylmethyl)-7-oxo-2,3-dihydro-7H-[1,4]oxazino[2,3,4-ij]quinoline-6-carboxamide], the IC50 worked out at 1.04 µM.
Same read-out and setting: next, `O=C(NCc1ccc(Cl)cc1)c1cn2c3c(cc(CN4CCOCC4)cc3c1=O)OC(c1cccnc1)C2` (single isomer, unassigned) [Example 58, N-(4-Chlorobenzyl)-9-(morpholin-4-ylmethyl)-7-oxo-2-(R or S)-pyridin-3-yl-2,3-dihydro-7H-[1,4]oxazino[2,3,4-ij]quinoline-6-carboxamide]: 0.57 µM and 0.27 µM; `O=C(NCc1ccc(Cl)cc1)c1cn2c3c(cc(CN4CCOCC4)cc3c1=O)OCC2c1ccccc1` (stereo not shown) [Example 29, N-(4-Chlorobenzyl)-9-(4-morpholinylmethyl)-7-oxo-3-phenyl-2,3-dihydro-7H-[1,4]oxazino[2,3,4-ij]quinoline-6-carboxamide]: 1 µM.
Same read-out and setting: next, `O=C(NCc1ccc(Cl)cc1)c1cn2c3c(cc(CN4CCOCC4)cc3c1=O)OC(c1cccnc1)C2` (stereo not shown) [Example 34, N-(4-Chlorobenzyl)-9-(4-morpholinylmethyl)-7-oxo-2-(3-pyridinyl)-2,3-dihydro-7H-[1,4]oxazino[2,3,4-ij]quinoline-6-carboxamide]: 0.48 µM.
As for `O=C(NCc1ccc(Cl)cc1)c1cn2c3c(cc(CN4CCOCC4)cc3c1=O)OC(CO)C2` (stereo not shown) [Example 1, N-(4-Chlorobenzyl)-2-(hydroxymethyl)-9-(4-morpholinylmethyl)-7-oxo-2,3-dihydro-7H-[1,4]oxazino[2,3,4-ij]quinoline-6-carboxamide], the IC50 is 0.61 µM.
On the same count and under the same terms, as for `O=C(NCc1ccc(Cl)cc1)c1cn2c3c(cc(CN4CCOCC4)cc3c1=O)OC(CNCc1cccnc1)C2` (single isomer, unassigned) [Example 22, N-(4-chlorobenzyl)-9-(4-morpholinylmethyl)-7-oxo-2-(R or S)-{[(3-pyridinylmethyl)amino]methyl}-2,3-dihydro-7H-[1,4]oxazino[2,3,4-ij]quinoline-6-carboxamide], the figure is 0.3 µM.
The same measure, in the same setting: next, `O=C(NCc1ccc(Cl)cc1)c1cn2c3c(cc(CN4CCOCC4)cc3c1=O)OC(CNCC(O)CO)C2` (stereo not shown) [Example 6, N-(4-Chlorobenzyl)-2-{[(2,3-dihydroxypropyl)amino]methyl}-9-(4-morpholinylmethyl)-7-oxo-2,3-dihydro-7H-[1,4]oxazino[2,3,4-ij]quinoline-6-carboxamide]: 0.66 µM.
In the case of `O=C(NCc1ccc(Cl)cc1)c1cn2c3c(cc(CN4CCOCC4)cc3c1=O)OCC2CN1CCOCC1` (stereo not shown) [Example 30, N-(4-Chlorobenzyl)-3,9-bis(4-morpholinylmethyl)-7-oxo-2,3-dihydro-7H-[1,4]oxazino[2,3,4-ij]quinoline-6-carboxamide], the IC50 came out at 0.97 µM.
Same read-out and setting: as for `N#Cc1cccc(C2Cn3cc(C(=O)NCc4ccc(Cl)cc4)c(=O)c4cc(CN5CCOCC5)cc(c43)O2)c1` (stereo not shown) [Example 36, N-(4-Chlorobenzyl)-2-(3-cyanophenyl)-9-(morpholin-4-ylmethyl)-7-oxo-2,3-dihydro-7H-[1,4]oxazino[2,3,4-ij]quinoline-6-carboxamide], the figure is 0.42 µM.
For `O=C(NCc1ccc(Cl)cc1)c1cn2c3c(cc(CN4CCOCC4)cc3c1=O)OC(CNCc1cccnc1)C2` (stereo not shown) [Example 11, N-(4-Chlorobenzyl)-9-(4-morpholinylmethyl)-7-oxo-2-{[(3-pyridinylmethyl)amino]methyl}-2,3-dihydro-7H-[1,4]oxazino[2,3,4-ij]quinoline-6-carboxamide], the IC50 was 0.54 µM.
Regarding `O=C(NCc1ccc(Cl)cc1)c1cn2c3c(cc(CN4CCOCC4)cc3c1=O)OC(CNCc1ccccn1)C2` (stereo not shown) [Example 10, N-(4-Chlorobenzyl)-9-(4-morpholinylmethyl)-7-oxo-2-{[(2-pyridinylmethyl)amino]methyl}-2,3-dihydro-7H-[1,4]oxazino[2,3,4-ij]quinoline-6-carboxamide], the IC50 was found to be 0.62 µM.
Still for that read-out and setting: next, `O=C(NCc1ccc(Cl)cc1)c1cn2c3c(cc(CN4CCOCC4)cc3c1=O)OC(CNCCO)C2` (stereo not shown) [Example 7, N-(4-Chlorobenzyl)-2-{[(2-hydroxyethyl)amino]methyl}-9-(4-morpholinylmethyl)-7-oxo-2,3-dihydro-7H-[1,4]oxazino[2,3,4-ij]quinoline-6-carboxamide]: 0.67 µM; `O=C(NCc1ccc(Cl)cc1)c1cn2c3c(cc(CN4CCOCC4)cc3c1=O)OC(c1ccccn1)C2` (stereo not shown) [Example 33, N-(4-Chlorobenzyl)-9-(4-morpholinylmethyl)-7-oxo-2-(2-pyridinyl)-2,3-dihydro-7H1-[1,4]oxazino[2,3,4-ij]quinoline-6-carboxamide]: 0.52 µM; `O=C(NCc1ccc(Cl)cc1)c1cn2c3c(cc(CN4CCOCC4)cc3c1=O)OC(CNCc1ccc(Cl)cc1)C2` (stereo not shown) [Example 56, N-(4-Chlorobenzyl)-2-{[(4-chlorobenzyl)amino]methyl}-9-(morpholin-4-ylmethyl)-7-oxo-2,3-dihydro-7H-[1,4]oxazino[2,3,4-ij]quinoline-6-carboxamide]: 0.66 µM.
Still for that read-out and setting: next, `O=C(NCc1ccc(Cl)cc1)c1cn2c3c(cc(CN4CCOCC4)cc3c1=O)OC(CO)C2` (single isomer, unassigned) [Example 20, N-(4-Chlorobenzyl)-2-(R or S)-(hydroxymethyl)-9-(4-morpholinylmethyl)-7-oxo-2,3-dihydro-7H-[1,4]oxazino[2,3,4-ij]quinoline-6-carboxamide]: 0.35 µM.
For the compound `O=C(NCc1ccc(Cl)cc1)c1cn2c3c(cc(C#CCO)cc3c1=O)OCC2(CO)CO` [Example 31, N-(4-Chlorobenzyl)-3,3-bis(hydroxymethyl)-9-(3-hydroxy-1-propynyl)-7-oxo-2,3-dihydro-7H-[1,4]oxazino[2,3,4-ij]quinoline-6-carboxamide], the IC50 came out at 5 µM.
On the same count and under the same terms, as for `O=C(NCc1ccc(Cl)cc1)c1cn2c3c(cc(CN4CCOCC4)cc3c1=O)OC(c1cccs1)C2` (stereo not shown) [Example 38, N-(4-Chlorobenzyl)-9-(morpholin-4-ylmethyl)-7-oxo-2-thien-2-yl-2,3-dihydro-7H-[1,4]oxazino[2,3,4-ij]quinoline-6-carboxamide], the figure is 0.46 µM; as for `COCOc1ccccc1C1Cn2cc(C(=O)NCc3ccc(Cl)cc3)c(=O)c3cc(CN4CCOCC4)cc(c32)O1` (stereo not shown) [Example 64, N-(4-Chlorobenzyl)-2-[2-(methoxymethoxy)phenyl]-9-(morpholin-4-ylmethyl)-7-oxo-2,3-dihydro-7H-[1,4]oxazino[2,3,4-ij]quinoline-6-carboxamide], 1.05 µM; as for `O=C(NCc1ccc(Cl)cc1)c1cn2c3c(cc(CN4CCOCC4)cc3c1=O)OC(c1ccccn1)C2` (single isomer, unassigned) [Example 57, N-(4-Chlorobenzyl)-9-(morpholin-4-ylmethyl)-7-oxo-2-(R or S)-pyridin-2-yl-2,3-dihydro-7H-[1,4]oxazino[2,3,4-ij]quinoline-6-carboxamide], 0.68 µM and 0.32 µM.

Test system in a further data set: not given
Assay: not given
Details: not given
Consider `O=C(NCc1ccc(Cl)cc1)c1cn2c3c(cc(CN4CCOCC4)cc3c1=O)OC(CN1CCCC1)C2` (stereo not shown) [Example 5, N-(4-Chlorobenzyl)-9-(4-morpholinylmethyl)-7-oxo-2-(1-pyrrolidinylmethyl)-2,3-dihydro-7H-[1,4]oxazino[2,3,4-ij]quinoline-6-carboxamide], for which the melting point fell in the range of 209.5 to 212 °C.
Same read-out and setting: next, `CN1CCN(CC2Cn3cc(C(=O)NCc4ccc(Cl)cc4)c(=O)c4cc(CN5CCOCC5)cc(c43)O2)CC1` (stereo not shown) [Example 4, N-(4-Chlorobenzyl)-2-[(4-methyl-1-piperazinyl)methyl]-9-(4-morpholinylmethyl)-7-oxo-2,3-dihydro-7H-[1,4]oxazino[2,3,4-ij]quinoline-6-carboxamide]: 201 to 208 °C (dec.); `COCOc1cccc(C2Cn3cc(C(=O)NCc4ccc(Cl)cc4)c(=O)c4cc(CN5CCOCC5)cc(c43)O2)c1OCOC` (stereo not shown) [Example 44, 2-[2,3-bis(Methoxymethoxy)phenyl]-N-(4-chlorobenzyl)-9-(morpholin-4-ylmethyl)-7-oxo-2,3-dihydro-7H-[1,4]oxazino[2,3,4-ij]quinoline-6-carboxamide]: 177 to 180 °C.

One may read the IC50 as the concentration that gives 50% inhibition. The melting point is the temperature of the solid-liquid transition.
